Converted amounts (≈) assume the structure as drawn. Like-named read-outs stand apart in the source and are kept apart here.
How the values were obtained:
[1] = test system: Staphylococcus aureus 209P; experiment: Minimum inhibitory concentration, serial dilution on nutrient agar; format: cell-based; details: 37° C., 18 hours incubation
[2] = test system: Staphylococcus aureus Smith; experiment: as above; format: cell-based; details: 37° C., 18 hours incubation
[3] = test system: Staphylococcus aureus AP01; experiment: as above; format: cell-based; details: 37° C., 18 hours incubation
[4] = test system: Staphylococcus epidermidis 109; experiment: as above; format: cell-based; details: Staphylococcus epidermidis, 109; nutrient agar, 37° C., 18 hours incubation; read-out: MIC
[5] = test system: Micrococcus flavus FDA 16; experiment: as above; format: cell-based
[6] = test system: Bacillus subtilis PCI 219; experiment: as above; format: cell-based; details: PCI219, 37° C., 18 hours incubation
[7] = test system: Bacillus cereus ATCC 10702; experiment: as above; format: cell-based; details: ATCC10702, nutrient agar, 37° C., 18 hours incubation, read-out: MIC
[8] = test system: Mycobacterium smegmatis ATCC 607; experiment: as above; format: cell-based; details: Mycolicibacterium smegmatis, ATCC607; nutrient agar, 37° C., 18 hours incubation; read-out: MIC
[9] = test system: Escherichia coli NIHJ; experiment: as above; format: cell-based; details: nutrient agar, 37° C., 18 hours incubation, read-out: MIC
[10] = test system: Escherichia coli K-12 ML 1629; experiment: as above; format: cell-based; details: K12ML1629, nutrient agar, 37° C., 18 hours incubation, read-out: MIC
[11] = test system: Escherichia coli K-12 LA 290 R55; experiment: as above; format: cell-based; details: K12LA290R55, 18 h
[12] = test system: Escherichia coli K-12 LA 290 R56; experiment: as above; format: cell-based; details: K12LA290R56, 18 h
[13] = test system: Escherichia coli K-12 LA 290 R64; experiment: as above; format: cell-based; details: K12LA290R64, 18 h
[14] = test system: Escherichia coli JR66/W677; experiment: as above; format: cell-based
[15] = test system: Klebsiella pneumoniae PCI 602; experiment: as above; format: cell-based; details: PCI602, nutrient agar, 37° C., 18 hours incubation, read-out: MIC
[16] = test system: Salmonella typhi T-63; experiment: as above; format: cell-based; details: Salmonella enterica, 18 h
[17] = test system: Proteus vulgaris OX19; experiment: as above; format: cell-based; details: 37° C., 18 hours incubation
[18] = test system: Proteus rettgeri GN311; experiment: as above; format: cell-based; details: Providencia rettgeri, 37° C., 18 hours incubation
[19] = test system: Proteus rettgeri GN466; experiment: as above; format: cell-based; details: Providencia rettgeri
[20] = test system: Serratia SOU; experiment: as above; format: cell-based; details: 37° C., 18 hours incubation
[21] = test system: Serratia 4; experiment: as above; format: cell-based; details: 37° C., 18 hours incubation
[22] = test system: Pseudomonas aeruginosa A3; experiment: as above; format: cell-based; details: 37° C., 18 hours incubation
[23] = test system: Pseudomonas aeruginosa H9; experiment: as above; format: cell-based; details: H9, 18 h
[24] = test system: Pseudomonas aeruginosa H11; experiment: as above; format: cell-based; details: H11, nutrient agar, 37° C., 18 hours incubation, read-out: MIC
[25] = test system: Pseudomonas aeruginosa B-13; experiment: as above; format: cell-based; details: B13, 37° C., 18 hours incubation
[26] = test system: Pseudomonas aeruginosa 21-75; experiment: as above; format: cell-based; details: 2175, 37° C., 18 hours incubation
[27] = test system: Pseudomonas aeruginosa PST1; experiment: as above; format: cell-based; details: PST1, nutrient agar, 37° C., 18 hours incubation, read-out: MIC
[28] = test system: Pseudomonas aeruginosa ROS134/PU21; experiment: as above; format: cell-based; details: ROS134/PU21, 18 h
[29] = test system: Pseudomonas aeruginosa K-Ps102; experiment: as above; format: cell-based
[30] = test system: Pseudomonas maltophilia GN907; experiment: as above; format: cell-based; details: Stenotrophomonas maltophilia, 37° C., 18 hours incubation
[31] = Acute toxicity by intravenous injection in mice; details: mouse, in vivo
[32] = FDA16, nutrient agar, 37° C., 18 hours incubation, read-out: MIC

`C[C@H]1O[C@H](O[C@@H]2C[C@H](O[C@H]3O[C@H](CN)CC[C@H]3N)[C@@H](N)C[C@H]2NC(=O)[C@@H](O)CCN)[C@H](O)[C@@H](N)[C@@H]1O` [AHB-tetradeoxyKMB, 1-N-[(S)-4-amino-2-hydroxybutyryl]-5,3',4',6"-tetradeoxykanamycin B] gave an MIC [1] of under 0.2 µg/mL, an MIC [2] of under 0.2 µg/mL and an MIC [3] of 0.78 µg/mL (≈ 1.5 µM). The MIC [4] was 0.78 µg/mL (≈ 1.5 µM), the MIC [5, 32] was 6.25 µg/mL (≈ 12 µM) and the MIC [6] was under 0.2 µg/mL. The MIC [7] was 0.39 µg/mL (≈ 0.749 µM), the MIC [8] was under 0.2 µg/mL and the MIC [9] was 0.78 µg/mL (≈ 1.5 µM). For the same compound, the MIC [10] was 0.78 µg/mL (≈ 1.5 µM), the MIC [11] was 1.56 µg/mL (≈ 3 µM) and the MIC [12] was 0.39 µg/mL (≈ 0.749 µM). The MIC [13] was 0.78 µg/mL (≈ 1.5 µM), the MIC ([14]; JR66/W677, 18 h) was 1.56 µg/mL (≈ 3 µM) and the MIC [15] was 0.78 µg/mL (≈ 1.5 µM). For the same compound, the MIC [16] was 25 µg/mL (≈ 48 µM), the MIC [17] was 0.39 µg/mL (≈ 0.749 µM) and the MIC [18] was 25 µg/mL (≈ 48 µM). For the same compound, the MIC ([19]; GN466, 18 h) was 1.56 µg/mL (≈ 3 µM), the MIC [20] was 100 µg/mL (≈ 192 µM) and the MIC [21] was 25 µg/mL (≈ 48 µM). For the same compound, the MIC [22] was 0.78 µg/mL (≈ 1.5 µM), the MIC [23] was 3.13 µg/mL (≈ 6.01 µM) and the MIC [24] was 12.5 µg/mL (≈ 24 µM). It also gave an MIC [25] of 12.5 µg/mL (≈ 24 µM), an MIC [26] of 12.5 µg/mL (≈ 24 µM) and an MIC [27] of 6.25 µg/mL (≈ 12 µM). It also gave an MIC [28] of 100 µg/mL (≈ 192 µM), an MIC ([29]; KPS102, 18 h) of 3.13 µg/mL (≈ 6.01 µM) and an MIC [30] of over 100 µg/mL. The LD50 [31] was 25 to 50 mg/kg.
Work on `NCC[C@H](O)C(=O)N[C@@H]1C[C@H](N)[C@@H](O[C@H]2O[C@H](CN)CC[C@H]2N)C[C@H]1O[C@H]1O[C@H](CO)[C@@H](O)[C@H](N)[C@H]1O` [AHB-trideoxyKMB, 1-N-[(S)-4-amino-2-hydroxybutyryl]-5,3',4'-trideoxykanamycin B] yielded an MIC [1] of under 0.2 µg/mL, an MIC [2] of under 0.2 µg/mL and an MIC [3] of 0.39 µg/mL (≈ 0.727 µM). It also gave an MIC [4] of 0.39 µg/mL (≈ 0.727 µM), an MIC [5, 32] of 1.56 µg/mL (≈ 2.91 µM) and an MIC [6] of under 0.2 µg/mL. The MIC [7] was 0.78 µg/mL (≈ 1.45 µM), the MIC [8] was 0.2 µg/mL (≈ 0.373 µM) and the MIC [9] was 0.78 µg/mL (≈ 1.45 µM). It also gave an MIC [10] of 1.56 µg/mL (≈ 2.91 µM), an MIC [11] of 3.13 µg/mL (≈ 5.83 µM) and an MIC [12] of 0.78 µg/mL (≈ 1.45 µM). It also gave an MIC [13] of 0.78 µg/mL (≈ 1.45 µM), an MIC ([14]; JR66/W677, nutrient agar, 37° C., 18 hours incubation, read-out: MIC) of 1.56 µg/mL (≈ 2.91 µM) and an MIC [15] of 0.78 µg/mL (≈ 1.45 µM). For the same compound, the MIC [16] was 25 µg/mL (≈ 46.6 µM), the MIC [17] was 0.39 µg/mL (≈ 0.727 µM) and the MIC [18] was 25 µg/mL (≈ 46.6 µM). For the same compound, the MIC ([19]; GN466, 18 h) was 3.13 µg/mL (≈ 5.83 µM), the MIC [20] was 100 µg/mL (≈ 186 µM) and the MIC [21] was 12.5 µg/mL (≈ 23.3 µM). For the same compound, the MIC [22] was 0.39 µg/mL (≈ 0.727 µM), the MIC [23] was 3.13 µg/mL (≈ 5.83 µM) and the MIC [24] was 6.25 µg/mL (≈ 11.6 µM). The MIC [25] was 6.25 µg/mL (≈ 11.6 µM), the MIC [26] was 6.25 µg/mL (≈ 11.6 µM) and the MIC [27] was 6.25 µg/mL (≈ 11.6 µM). For the same compound, the MIC [28] was over 100 µg/mL, the MIC ([29]; KPS102, nutrient agar, 37° C., 18 hours incubation, read-out: MIC) was 1.56 µg/mL (≈ 2.91 µM) and the MIC [30] was over 100 µg/mL. It also gave an LD50 [31] of 25 to 50 mg/kg.
For `CNC[C@@H]1CC[C@@H](N)[C@@H](O[C@H]2C[C@@H](O[C@H]3O[C@H](CO)[C@@H](O)[C@H](N)[C@H]3O)[C@H](NC(=O)[C@@H](O)CCN)C[C@@H]2N)O1` [AHB-trideoxyMKMB, 1-N-[(S)-4-amino-2-hydroxybutyryl]-5,3',4'-trideoxy-6'-N-methylkanamycin B], the MIC [1] was under 0.2 µg/mL, the MIC [2] was under 0.2 µg/mL and the MIC [3] was 0.39 µg/mL (≈ 0.708 µM). For the same compound, the MIC [4] was under 0.2 µg/mL, the MIC ([5]; FDA16, 18 h) was 1.56 µg/mL (≈ 2.83 µM) and the MIC [6] was under 0.2 µg/mL. The MIC [7] was 0.39 µg/mL (≈ 0.708 µM), the MIC [8] was under 0.2 µg/mL and the MIC [9] was 0.78 µg/mL (≈ 1.42 µM). The MIC [10] was 0.78 µg/mL (≈ 1.42 µM), the MIC [11] was 1.56 µg/mL (≈ 2.83 µM) and the MIC [12] was 0.78 µg/mL (≈ 1.42 µM). It also gave an MIC [13] of 1.56 µg/mL (≈ 2.83 µM), an MIC ([14]; JR66/W677, 18 h) of 1.56 µg/mL (≈ 2.83 µM) and an MIC [15] of 0.78 µg/mL (≈ 1.42 µM). It also gave an MIC [16] of 1.56 µg/mL (≈ 2.83 µM), an MIC [17] of under 0.2 µg/mL and an MIC [18] of 50 µg/mL (≈ 90.8 µM). For the same compound, the MIC ([19]; GN466, nutrient agar, 37° C., 18 hours incubation, read-out: MIC) was 6.25 µg/mL (≈ 11.4 µM), the MIC [20] was 25 µg/mL (≈ 45.4 µM) and the MIC [21] was 6.25 µg/mL (≈ 11.4 µM). The MIC [23] was 1.56 µg/mL (≈ 2.83 µM), the MIC [24] was 12.5 µg/mL (≈ 22.7 µM) and the MIC [25] was 12.5 µg/mL (≈ 22.7 µM). For the same compound, the MIC [26] was 12.5 µg/mL (≈ 22.7 µM), the MIC [27] was 12.5 µg/mL (≈ 22.7 µM) and the MIC [28] was 50 µg/mL (≈ 90.8 µM). The MIC ([29]; KPS102, 18 h) was 1.56 µg/mL (≈ 2.83 µM), the MIC [30] was over 100 µg/mL and the LD50 [31] was 50 to 100 mg/kg.

From US4410516A, “1-N(αHydroxy-ω-aminoalkanoyl) derivatives of 5,3',4'-trideoxy- or 5,3', 4'-trideoxy-6'-N- methyl- or 5, 3', 4',6"-tetradeoxykannamyci B and production thereof” (Zaidan Hojin Biseibutsu Kagaku Kenkyu Kai, priority 1981, dated 1983)
